Measurements: US11999697B2, “Methods and compositions for inhibition of dihydroorotate dehydrogenase” (OHIO STATE INNOVATION FOUNDATION, priority 2018, dated 2024)
Counter-ions that a name gives are not always drawn.

Columns and labels:
[1] = system: IDH2-R140Q/Flt3-ITD spleen cells (murine AML); assay: IDH2-R140Q/Flt3-ITD adoptive transfer model; assay type: in vivo, NCG mice; conditions: daily oral gavage; Cpd3 50 mg/kg, enasidenib 100 mg/kg
Text: Leukemic cells derived from a spontaneous murine model of Idh2/Flt3 AML, as reported by Shih et al (Cancer Discov. 7(5):494-505), were engrafted via adoptive transfer to generate an aggressive model of AML suitable for testing of therapeutic agents. Briefly, 6-8 week old mice harboring a heterozygous internal tandem duplication of FMS-like tyrosine kinase 3 (Flt3-ITD), a heterozygous point mutation of isocitrate dehydrogenase 2 (Idh2-R140Q) preceeded by a loxP flanked STOP codon, and Cre recombinase under the MX dynamin like GTPase 1 (Mx1) promoter were injected i.p. with polyinosinic:polycytidylic acid (poly(I:C)), activating Cre recombinase and inducing hematopoietic-specific expression of the Idh2-R140Q mutation. Spleen cells from these mice were collected after the development of lethal AML (defined by study removal criteria), typically 8-14 months post-poly(I:C) injection. 1×10^5 spleen cells from a single leukemic donor were engrafted by tail vein injection into 6 week old immune deficient NOD-Prkdc^em26Cd52//2rg^em26Cd22/NjuCrl mice (NCG; Charles River). At one week post-engraftment, animals were randomized to vehicle (5% EtOH, 10% Kolliphor EL, in PBS), enasidenib (100 mg/kg), and HOSU-3 (50 mg/kg) treatment arms and dosed by daily oral gavage. Personnel responsible for animal monitoring, dosing, and decisions regarding euthanasia were blinded to treatment arms. Survival was assessed using Kaplan-Meier analysis and p-values were determined using the log-rank test and adjusted using Holm's method.

[2] = system: AML cell lines (MOLM13, MV4-11, THP1, HL-60, and OCI-AML3)
Protocol: MTS assay for cell growth/viability: Mitochondrial activity was measured to determine cell proliferation using an MTS assay (tetrazolium dye 3′[4,5-dimethylthiazol-2-yl]-2,5-diphenyl-tetrazolium bromide). Metabolically active cells convert MTS tetrazolium salt into a purple formazan product that is soluble in tissue culture medium. The amount of formazan measured at 490 nm absorbance is proportional to the number of proliferating cells. […] Triplicate wells were set up for each condition. At 96 hours, the MTS reagent was added and after approximately 4 hours the plates were read in a spectrophotometer. MTS assays in primary AML cells were done in a similar manner as the cell lines with the following changes: 100K cells were plated per well, and the MTS was done in the presence of an HS5 stromal cell line to support the in vitro growth of the primary cells. Primary cells were incubated with MTS for approximately 8-12 hours (varies with the samples) before reading the absorbance.
Cell proliferation assays were carried out using the MTS assay described herein using five AML cell lines (i.e., MOLM13, MV4-11, THP1, HL-60, and OCI-AML3) with varied genetic backgrounds. The assays were carried out in a blinded fashion.

| Structure (SMILES) | Median survival [1] | cytotoxicity compared to the free acid form and brequinar [2] |
| --- | --- | --- |
| CC(C)(O)CNc1nc(Nc2ccnc(C(F)(F)F)c2)nc(-c2cccc(C(F)(F)F)n2)n1 [Enasidenib, reference compound] | 34 days | – |
| CCOc1ccc(-c2ccc(-c3cc(C(=O)O)c4cc(F)ccc4n3)cc2)cc1 [sodium salt form of Cpd3, Sodium 2-(4′-Ethoxy-[1,1′-biphenyl]-4-yl)-6-fluoroquinoline-4-carboxylate] | – | equally cytotoxic against AML cell lines |
